This passage reports IC50 and inhibition results from ChEMBL document CHEMBL2413002, “A convenient synthesis of lubeluzole and its enantiomer: evaluation as chemosensitizing agents on human ovarian adenocarcinoma and lung carcinoma cells” (Bioorg Med Chem Lett, 2013).

For assay [1], the system named is A2780. Nature of the assay: Cytotoxicity against human A2780 cells after 72 hrs by MTT assay. Type of assay: functional, cell-based. The settings on record: A2780, 72 h. (Tetrazolium assays rely on reduction of a dye to a coloured formazan, in cell work by metabolically active cells.)
Assay [2] relates to A549. Nature of the assay: Cytotoxicity against human A549 cells after 72 hrs by MTT assay. Type of assay: functional, cell-based. The settings on record: A549, 72 h.
Assay [3] concerns A2780. Nature of the assay: Antiproliferative activity against human A2780 cells at 0.005 uM after 72 hrs by MTT assay. Type of assay: functional. The conditions noted are these: A2780, 72 h.
Assay [4] relates to A549. Nature of the assay: Antiproliferative activity against human A549 cells at 0.005 uM after 72 hrs by MTT assay. It counts as functional. The settings on record: A549, 72 h.

Regarding `CN(c1nc2ccccc2s1)C1CCN(C[C@@H](O)COc2ccc(F)c(F)c2)CC1`, the values for the half-maximal inhibitory concentration (IC50) in assay [1] and in assay [2] were 14 µM and 18 µM, respectively.

Compound `COc1cccc2c1C(=O)c1c(O)c3c(c(O)c1C2=O)C[C@@](O)(C(=O)CO)C[C@@H]3O[C@H]1C[C@H](N)[C@H](O)[C@H](C)O1` [DOXORUBICIN] registered a 50% inhibitory concentration (IC50) in assay [1] of 0.023 µM.

As for `CN(c1nc2ccccc2s1)C1CCN(C[C@H](O)COc2ccc(F)c(F)c2)CC1` [LUBELUZOLE], the results for the half-maximal inhibitory concentration (IC50) in assay [1] and in assay [2] were 5.7 µM and 14 µM, respectively. Besides, the inhibition at 0.005 µM in assay [3] came out at 4.3%; in assay [4], 5.2%.

Turning to `CC(=O)O[C@H]1C(=O)[C@@]2(C)[C@H]([C@H](OC(=O)c3ccccc3)[C@]3(O)C[C@H](OC(=O)[C@H](O)[C@@H](NC(=O)c4ccccc4)c4ccccc4)C(C)=C1C3(C)C)[C@]1(OC(C)=O)CO[C@@H]1C[C@@H]2O` [PACLITAXEL], it took 0.014 µM to reach half-maximal inhibition in assay [2] (IC50).

By IC50 is commonly meant the point on the concentration scale where inhibition reaches its midpoint. A lower IC50 goes with greater potency. In general, inhibition refers to the share of the control response that was lost under treatment.
